Data from ChEMBL document CHEMBL1201862, “PubChem BioAssay data set” (2004).
Activity calls are given as the source filed them.

Tests used:
[1] = Luminescence Cell-Based Dose Response HTS to Identify Activators of Luciferase Translation or Activity in H4-C Neuroglioblastoma Cells. [Related pubchem assays: 1829 (Project Summary), 1814 (Primary HTS)]; format: functional
[2] = Luminescence Cell-Based Dose Retest to Confirm Activators of 5'UTR Stem-Loop Driven Alpha-Synuclein mRNA Translation in H4 Neuroglioblastoma Cells. [Related pubchem assays (depositor defined):AID1813, AID1829]; format: functional
[3] = Luminescence Cell-Based Dose Confirmation HTS to Identify Inhibitors of 5'UTR Stem-Loop Driven Alpha-Synuclein mRNA Translation in H4 Neuroglioblastoma Cells. [Related pubchem assays: 1827 (Project Summary), 1813 (Primary HTS)]; format: functional
[4] = Luminescence Cell-Based Dose HTS Response to Identify Inhibitors of 5'UTR Stem-Loop Driven Prion Protein mRNA Translation in H4-C Neuroglioblastoma Cells. [Related pubchem assays (depositor defined):AID1814, AID1827]; format: functional
[5] = Luminescence Cell-Based Dose Response HTS to Identify Inhibitors of Luciferase Translation or Activity in H4-C Neuroglioblastoma Cells. [Related pubchem assays: 1813 (Primary HTS), 1827 (Project Summary)]; format: functional
[6] = Luminescence Cell-Based Dose Response HTS to Identify Activators of 5'UTR Stem-Loop Driven Prion Protein mRNA Translation in H4-C Neuroglioblastoma Cells. [Related pubchem assays: 1829 (Project Summary), 1814 (Primary HTS)]; format: functional
[7] = luciferase reporter signal suppression in cells – H4 neuroglioma cells, luminescence, dose response (AID 1990); format: functional, cell-based
[8] = alpha-synuclein stem-loop luciferase translation blockers – H4 neuroglioma cells, luminescence, confirmation (AID 1988); format: functional, cell-based
[9] = biological target: T1, Intestinal-type alkaline phosphatase (Homo sapiens, UniProt P09923); test: human intestinal alkaline phosphatase activators, dose response, biochemical, luminescence, uHTS hits (AID 463120); format: functional
[10] = Luminescence Cell-Based Dose Response HTS to Identify Inhibitors of 5'UTR Stem-Loop Driven Prion Protein mRNA Translation in H4 Neuroglioblastoma Cells. [Related pubchem assays: 1827 (Project Summary), 1813 (Primary HTS)]; format: functional
[11] = biological target: T2, Zinc finger protein mex-5 (Caenorhabditis elegans, UniProt Q9XUB2); test: potency of MEX-5 RNA-binding blockers – biochemical, C. elegans, fluorescence polarization, dose response (AID 1960)
T2 sequence (Q9XUB2 whole entry): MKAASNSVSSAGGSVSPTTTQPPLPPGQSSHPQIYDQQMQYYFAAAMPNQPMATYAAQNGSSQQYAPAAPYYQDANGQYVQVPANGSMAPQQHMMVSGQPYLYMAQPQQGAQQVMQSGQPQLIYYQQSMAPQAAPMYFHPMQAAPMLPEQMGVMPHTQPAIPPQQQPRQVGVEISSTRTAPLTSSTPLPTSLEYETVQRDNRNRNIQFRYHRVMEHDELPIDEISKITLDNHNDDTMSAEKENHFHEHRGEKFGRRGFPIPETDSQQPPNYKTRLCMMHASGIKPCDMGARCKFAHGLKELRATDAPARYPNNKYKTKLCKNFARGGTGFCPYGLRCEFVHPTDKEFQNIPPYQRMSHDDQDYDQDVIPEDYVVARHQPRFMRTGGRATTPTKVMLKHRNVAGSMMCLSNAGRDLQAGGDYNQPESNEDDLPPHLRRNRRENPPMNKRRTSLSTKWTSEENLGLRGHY

[12] = biological target: T3, RNA-binding protein pos-1 (Caenorhabditis elegans, UniProt G5EF15); test: disruptors of C. elegans POS-1 RNA interaction – biochemical, fluorescence polarization, dose response (AID 1964);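 also: purified POS-1 fused to maltose binding protein made in E. coli; potency of compounds blocking POS-1 binding to fluorescent RNA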
T3 sequence (G5EF15 whole entry): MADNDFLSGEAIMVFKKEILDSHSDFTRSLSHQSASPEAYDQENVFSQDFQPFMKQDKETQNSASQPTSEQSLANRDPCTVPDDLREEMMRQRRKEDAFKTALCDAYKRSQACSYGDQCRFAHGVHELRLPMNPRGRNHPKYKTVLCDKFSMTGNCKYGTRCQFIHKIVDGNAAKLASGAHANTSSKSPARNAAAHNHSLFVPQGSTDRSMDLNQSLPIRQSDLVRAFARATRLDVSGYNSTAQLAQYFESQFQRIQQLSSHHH

[13] = biological target: T4, Alkaline phosphatase, tissue-nonspecific isozyme (Homo sapiens, UniProt P05186); test: activation of tissue-nonspecific alkaline phosphatase – biochemical, TNAP isozyme, mouse IAP uHTS hits, selectivity assay for mouse IAP activator project, dose response (AID 488880); format: functional
T4 sequence (P05186 whole entry): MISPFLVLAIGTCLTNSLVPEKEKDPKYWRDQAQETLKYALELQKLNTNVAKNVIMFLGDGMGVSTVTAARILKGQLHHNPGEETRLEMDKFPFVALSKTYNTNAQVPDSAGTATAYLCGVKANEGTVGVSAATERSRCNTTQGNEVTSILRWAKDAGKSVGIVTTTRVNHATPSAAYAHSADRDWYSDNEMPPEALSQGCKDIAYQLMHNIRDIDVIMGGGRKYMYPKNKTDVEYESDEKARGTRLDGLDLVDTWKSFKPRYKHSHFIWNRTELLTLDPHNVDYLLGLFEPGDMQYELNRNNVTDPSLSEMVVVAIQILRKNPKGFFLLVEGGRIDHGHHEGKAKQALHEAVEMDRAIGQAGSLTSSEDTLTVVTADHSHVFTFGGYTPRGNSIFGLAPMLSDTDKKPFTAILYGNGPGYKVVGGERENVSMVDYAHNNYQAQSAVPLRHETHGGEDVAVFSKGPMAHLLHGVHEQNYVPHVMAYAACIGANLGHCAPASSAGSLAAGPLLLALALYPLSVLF

[14] = biological target: Intestinal-type alkaline phosphatase (Mus musculus, UniProt P24822); test: mouse intestinal alkaline phosphatase activators, dose response, biochemical, luminescence, uHTS hits (AID 488783); format: functional
[15] = biological target: T1, Intestinal-type alkaline phosphatase; test: activation of human intestinal alkaline phosphatase – biochemical, dose response (AID 488873); format: functional
Large T antigen = Large T antigen (Simian virus 40, UniProt P03070); format: functional, Betapolyomavirus macacae;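 also: Confirmatory-stage PubChem screen for compounds that inhibit SV40 T antigen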
Estrogen receptor [16] = biological target: T5, Estrogen receptor (Homo sapiens, UniProt P03372); test: ERα coactivator recruitment enhancers – biochemical, TR-FRET, ERα LBD, dose response (AID 737)
T5 sequence (P03372 whole entry): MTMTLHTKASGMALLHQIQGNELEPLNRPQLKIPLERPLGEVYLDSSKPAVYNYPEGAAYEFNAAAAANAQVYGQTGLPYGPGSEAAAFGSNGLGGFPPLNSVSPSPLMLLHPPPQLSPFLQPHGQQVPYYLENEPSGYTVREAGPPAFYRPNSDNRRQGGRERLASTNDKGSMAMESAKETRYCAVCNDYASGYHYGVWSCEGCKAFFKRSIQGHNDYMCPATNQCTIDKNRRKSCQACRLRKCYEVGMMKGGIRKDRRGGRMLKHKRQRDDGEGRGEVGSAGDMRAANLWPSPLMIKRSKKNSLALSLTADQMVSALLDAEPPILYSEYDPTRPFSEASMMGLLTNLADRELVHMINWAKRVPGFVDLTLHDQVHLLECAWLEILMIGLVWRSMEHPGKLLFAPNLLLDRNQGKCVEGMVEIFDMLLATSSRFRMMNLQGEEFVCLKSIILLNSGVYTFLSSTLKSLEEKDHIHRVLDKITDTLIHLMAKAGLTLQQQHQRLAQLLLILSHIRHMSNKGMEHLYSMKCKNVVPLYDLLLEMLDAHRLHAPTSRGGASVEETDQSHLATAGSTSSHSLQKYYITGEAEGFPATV

Estrogen receptor [17] = biological target: T5, Estrogen receptor
SUMO-activating enzyme [18] = biological target: T6, SUMO-activating enzyme (Homo sapiens, UniProt Q9UBT2); test: blockers of SAE1/SAE2–UBC9 SUMO transfer – biochemical, HTRF, uHTS, primary screen (AID 2006); format: protein-complex assay
SUMO-activating enzyme [19] = biological target: T6, SUMO-activating enzyme; test: blockers of UBC9-mediated SUMO conjugation – biochemical, AlphaScreen, SUMOylation inhibitor project, confirmation (AID 2018); format: functional
Cannabinoid receptor 2 [20] = biological target: T7, Cannabinoid receptor 2 (Homo sapiens, UniProt P34972); test: SAR analysis of agonists of the Cannabinoid Receptor 2 using an Image-Based Assay - Set 2. [Related pubchem assays (depositor defined):AID1961, AID1965]; format: functional
[21] = biological target: T8, G-protein coupled receptor 55 (Homo sapiens, UniProt Q9Y2T6); test: SAR analysis of selective Agonists of GPR55 using an Image-Based Assay. [Related pubchem assays (depositor defined):AID1961, AID1965]; format: functional
Cannabinoid receptor 2 [22] = biological target: T7, Cannabinoid receptor 2; test: SAR analysis of antagonists of the Cannabinoid Receptor 2 using an Image-Based Assay - Set 2. [Related pubchem assays (depositor defined):AID1961, AID1965]; format: functional
Cannabinoid receptor 1 = Cannabinoid receptor 1 (Homo sapiens, UniProt P21554); test: SAR analysis of antagonists of the Cannabinoid Receptor 1 using an Image-Based Assay. [Related pubchem assays (depositor defined):AID1961, AID1965]; format: functional
[23] = biological target: T8, G-protein coupled receptor 55; test: selective activators of receptor GPR55 – imaging, U2OS cells, beta-arrestin-GFP redistribution, primary screen (AID 1961); format: functional
[24] = biological target: T9, Kappa-type opioid receptor (Homo sapiens, UniProt P41145); test: SAR analysis of small molecule agonists of the kappa opioid receptor via a luminescent beta-arrestin assay - Set 2. [Related pubchem assays (depositor defined):AID1777, AID1785, AID1786, AID1966, AID2133, AID2136, AID2284, AID449737]; format: functional
Mu-type opioid receptor [25] = biological target: T10, Mu-type opioid receptor (Homo sapiens, UniProt P35372); test: SAR Analysis of Agonists of the MOR Receptor using an Image-Based Assay - Set 2. [Related pubchem assays (depositor defined):AID1777, AID1785, AID1786, AID1966, AID2133, AID2136, AID2284, AID2285, AID2352]; format: functional
Mu-type opioid receptor [26] = biological target: T10, Mu-type opioid receptor; test: SAR Analysis of Antagonists of the MOR Receptor using an Image-Based Assay - Set 2. [Related pubchem assays (depositor defined):AID1777, AID1785, AID1786, AID1966, AID2133, AID2136, AID2284, AID2285, AID2420]; format: functional
[27] = biological target: T11, Delta-type opioid receptor (Homo sapiens, UniProt P41143); test: SAR Analysis of Agonists of the DOR Receptor using an Image-Based Assay - Set 2. [Related pubchem assays (depositor defined):AID1777, AID1785, AID1786, AID1966, AID2133, AID2136, AID2284, AID2285, AID2370]; format: functional
[28] = biological target: T11, Delta-type opioid receptor; test: SAR Analysis of Antagonists of the DOR Receptor using an Image-Based Assay - Set 2. [Related pubchem assays (depositor defined):AID1777, AID1785, AID1786, AID1966, AID2133, AID2136, AID2284, AID2285, AID2357]; format: functional
[29] = biological target: T9, Kappa-type opioid receptor; test: SAR analysis of Antagonists of the Kappa Opioid Receptor (KOR) using an Image-Based Assay - Set 2. [Related pubchem assays (depositor defined):AID1777, AID1785, AID1786, AID1966, AID2133, AID2136, AID2284, AID2285, AID2348]; format: functional
[30] = biological target: T9, Kappa-type opioid receptor; test: SAR analysis of Agonists of the Kappa Opioid Receptor (KOR) using an Image-Based Assay - Set 2. [Related pubchem assays (depositor defined):AID1777, AID1786, AID1966, AID2133, AID2136, AID2284, AID2285, AID2359]; format: functional
[31] = biological target: Voltage-dependent T-type calcium channel subunit alpha-1H (Homo sapiens, UniProt O95180); test: human CACNA1H calcium influx blockade – cell-based, synthetic library set 2, HEK293 HH8, Fluo-4, SAR follow-up (AID 493023); format: functional

T9 sequence (P41145 whole entry): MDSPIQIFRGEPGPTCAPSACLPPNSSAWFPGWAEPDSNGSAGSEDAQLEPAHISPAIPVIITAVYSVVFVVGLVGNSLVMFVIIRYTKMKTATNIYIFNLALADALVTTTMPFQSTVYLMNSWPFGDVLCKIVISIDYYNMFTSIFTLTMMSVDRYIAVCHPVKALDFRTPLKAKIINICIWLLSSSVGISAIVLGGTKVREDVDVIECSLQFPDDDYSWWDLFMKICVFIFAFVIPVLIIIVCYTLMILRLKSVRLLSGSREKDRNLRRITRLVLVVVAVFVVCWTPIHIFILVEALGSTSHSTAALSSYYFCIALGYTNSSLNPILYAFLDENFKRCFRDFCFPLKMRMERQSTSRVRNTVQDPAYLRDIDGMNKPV
T1 sequence (P09923 whole entry): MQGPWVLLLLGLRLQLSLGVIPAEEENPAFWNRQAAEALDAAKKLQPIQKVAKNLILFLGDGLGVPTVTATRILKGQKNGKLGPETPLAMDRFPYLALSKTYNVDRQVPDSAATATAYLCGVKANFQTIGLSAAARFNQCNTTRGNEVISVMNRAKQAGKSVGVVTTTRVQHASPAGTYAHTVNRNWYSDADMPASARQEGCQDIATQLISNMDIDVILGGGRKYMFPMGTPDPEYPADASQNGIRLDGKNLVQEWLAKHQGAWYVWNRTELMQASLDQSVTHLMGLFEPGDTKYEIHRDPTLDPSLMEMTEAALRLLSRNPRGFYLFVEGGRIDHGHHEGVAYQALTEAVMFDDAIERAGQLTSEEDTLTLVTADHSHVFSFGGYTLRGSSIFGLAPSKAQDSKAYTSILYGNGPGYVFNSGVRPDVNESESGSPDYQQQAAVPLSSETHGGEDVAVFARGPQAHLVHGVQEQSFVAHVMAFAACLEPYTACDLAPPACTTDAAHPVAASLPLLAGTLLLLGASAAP
T10 sequence (P35372 whole entry): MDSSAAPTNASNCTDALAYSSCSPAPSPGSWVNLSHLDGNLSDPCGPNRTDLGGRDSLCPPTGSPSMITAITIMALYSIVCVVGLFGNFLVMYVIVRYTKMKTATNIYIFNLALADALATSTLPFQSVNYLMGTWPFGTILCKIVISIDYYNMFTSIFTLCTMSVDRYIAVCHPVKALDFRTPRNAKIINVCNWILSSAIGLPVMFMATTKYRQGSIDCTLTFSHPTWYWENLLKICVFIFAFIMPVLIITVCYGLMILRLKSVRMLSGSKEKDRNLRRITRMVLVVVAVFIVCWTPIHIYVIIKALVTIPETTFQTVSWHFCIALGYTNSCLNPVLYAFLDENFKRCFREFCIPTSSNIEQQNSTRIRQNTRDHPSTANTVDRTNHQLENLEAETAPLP
T6 sequence (Q9UBE0 whole entry): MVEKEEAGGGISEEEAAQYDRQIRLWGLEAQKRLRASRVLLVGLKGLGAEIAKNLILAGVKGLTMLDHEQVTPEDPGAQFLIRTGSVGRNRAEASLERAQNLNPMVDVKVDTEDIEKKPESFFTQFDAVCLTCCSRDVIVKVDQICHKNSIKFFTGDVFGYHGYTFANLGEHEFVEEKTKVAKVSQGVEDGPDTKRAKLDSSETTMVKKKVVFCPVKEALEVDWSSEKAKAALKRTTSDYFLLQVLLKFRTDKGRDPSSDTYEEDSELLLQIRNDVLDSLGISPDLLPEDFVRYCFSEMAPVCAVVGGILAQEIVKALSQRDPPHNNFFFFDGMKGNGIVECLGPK
T6 sequence (Q9UBT2 whole entry): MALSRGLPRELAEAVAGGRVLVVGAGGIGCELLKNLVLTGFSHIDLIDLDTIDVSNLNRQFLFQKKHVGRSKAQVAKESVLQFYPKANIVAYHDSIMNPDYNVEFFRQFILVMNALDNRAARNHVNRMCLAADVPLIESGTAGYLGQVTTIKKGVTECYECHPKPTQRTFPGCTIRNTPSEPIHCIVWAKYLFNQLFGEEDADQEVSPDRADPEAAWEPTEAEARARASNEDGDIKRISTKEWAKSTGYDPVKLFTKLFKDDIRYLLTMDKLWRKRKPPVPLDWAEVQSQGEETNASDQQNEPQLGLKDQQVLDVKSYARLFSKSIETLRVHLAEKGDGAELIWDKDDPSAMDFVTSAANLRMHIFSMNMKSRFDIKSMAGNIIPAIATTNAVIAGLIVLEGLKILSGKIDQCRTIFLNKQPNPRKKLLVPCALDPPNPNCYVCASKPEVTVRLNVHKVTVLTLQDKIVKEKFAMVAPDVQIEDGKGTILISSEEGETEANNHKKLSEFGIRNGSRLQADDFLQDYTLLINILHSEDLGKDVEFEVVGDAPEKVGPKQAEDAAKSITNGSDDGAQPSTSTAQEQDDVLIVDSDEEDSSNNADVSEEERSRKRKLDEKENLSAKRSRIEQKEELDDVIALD
T11 sequence (P41143 whole entry): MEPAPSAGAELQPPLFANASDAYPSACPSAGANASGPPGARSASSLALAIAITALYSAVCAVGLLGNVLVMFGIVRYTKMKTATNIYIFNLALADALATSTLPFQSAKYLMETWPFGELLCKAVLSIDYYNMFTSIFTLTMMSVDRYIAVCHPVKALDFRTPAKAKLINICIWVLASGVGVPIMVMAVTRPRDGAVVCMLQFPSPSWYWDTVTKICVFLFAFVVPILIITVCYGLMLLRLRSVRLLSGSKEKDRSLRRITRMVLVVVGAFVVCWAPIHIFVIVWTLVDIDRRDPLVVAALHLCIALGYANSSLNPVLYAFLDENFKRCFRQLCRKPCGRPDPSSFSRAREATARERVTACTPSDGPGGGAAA
T8 sequence (Q9Y2T6 whole entry): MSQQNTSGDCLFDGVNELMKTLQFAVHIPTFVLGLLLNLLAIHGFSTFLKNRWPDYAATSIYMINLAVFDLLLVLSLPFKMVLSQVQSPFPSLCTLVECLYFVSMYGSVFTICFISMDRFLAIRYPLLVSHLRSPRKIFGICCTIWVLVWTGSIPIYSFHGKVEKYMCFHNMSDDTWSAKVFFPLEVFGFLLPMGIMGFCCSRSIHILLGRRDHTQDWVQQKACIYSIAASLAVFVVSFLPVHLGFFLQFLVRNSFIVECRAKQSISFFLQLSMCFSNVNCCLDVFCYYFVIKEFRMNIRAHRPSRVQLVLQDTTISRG
T7 sequence (P34972 whole entry): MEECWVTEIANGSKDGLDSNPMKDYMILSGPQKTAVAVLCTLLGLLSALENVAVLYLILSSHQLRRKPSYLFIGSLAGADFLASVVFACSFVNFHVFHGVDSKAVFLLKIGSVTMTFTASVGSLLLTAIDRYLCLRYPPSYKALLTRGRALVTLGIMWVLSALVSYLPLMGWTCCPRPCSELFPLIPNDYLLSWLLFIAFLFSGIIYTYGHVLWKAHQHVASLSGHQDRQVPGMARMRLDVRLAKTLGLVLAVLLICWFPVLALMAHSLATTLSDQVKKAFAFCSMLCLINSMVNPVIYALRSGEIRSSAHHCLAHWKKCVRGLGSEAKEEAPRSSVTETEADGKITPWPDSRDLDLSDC
Sequence of Intestinal-type alkaline phosphatase (Mus musculus, UniProt P24822) (P24822 whole entry): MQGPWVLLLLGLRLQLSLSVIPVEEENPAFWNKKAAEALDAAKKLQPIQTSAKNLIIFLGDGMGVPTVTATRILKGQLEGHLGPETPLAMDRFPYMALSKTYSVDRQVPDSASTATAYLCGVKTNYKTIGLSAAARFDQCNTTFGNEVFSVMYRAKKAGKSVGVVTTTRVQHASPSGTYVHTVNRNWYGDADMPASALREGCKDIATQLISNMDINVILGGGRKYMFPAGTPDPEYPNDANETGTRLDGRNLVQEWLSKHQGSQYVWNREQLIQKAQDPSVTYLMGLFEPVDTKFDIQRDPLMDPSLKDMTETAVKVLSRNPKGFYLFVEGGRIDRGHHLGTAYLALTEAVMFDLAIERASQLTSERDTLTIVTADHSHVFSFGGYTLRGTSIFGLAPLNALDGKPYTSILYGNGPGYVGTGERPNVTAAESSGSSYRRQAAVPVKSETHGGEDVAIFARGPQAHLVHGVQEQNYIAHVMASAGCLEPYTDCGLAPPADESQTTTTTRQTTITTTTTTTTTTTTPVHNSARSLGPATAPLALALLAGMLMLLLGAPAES
Sequence of Cannabinoid receptor 1 (P21554 whole entry): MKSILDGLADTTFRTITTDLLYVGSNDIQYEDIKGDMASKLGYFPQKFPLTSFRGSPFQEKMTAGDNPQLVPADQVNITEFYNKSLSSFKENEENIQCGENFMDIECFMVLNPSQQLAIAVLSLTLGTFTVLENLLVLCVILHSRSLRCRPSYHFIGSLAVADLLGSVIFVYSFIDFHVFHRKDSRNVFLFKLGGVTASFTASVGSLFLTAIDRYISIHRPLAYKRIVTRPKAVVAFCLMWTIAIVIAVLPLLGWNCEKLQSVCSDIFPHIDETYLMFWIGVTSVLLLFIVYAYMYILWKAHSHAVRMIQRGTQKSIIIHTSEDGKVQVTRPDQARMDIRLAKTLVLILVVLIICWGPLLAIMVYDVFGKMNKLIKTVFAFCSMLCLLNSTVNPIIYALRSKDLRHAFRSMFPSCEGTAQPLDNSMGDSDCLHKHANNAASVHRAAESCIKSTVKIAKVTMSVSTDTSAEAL

With CC[n+]1c(/C=C/C=C/c2ccc(N(C)C)cc2)sc2ccccc21 the EC50 [1] was 2.69 µM (inconclusive), the EC50 [2] was 26.3 µM (inconclusive) and the EC50 [3] was 26.3 µM (active). The EC50 [4] was 1.54 µM (active), the EC50 [5] was 2.69 µM (active) and the EC50 [6] was 1.54 µM (inconclusive).
With N#CCN1C(=S)N=C(Nc2cccc(Cl)c2)C12CCCCC2 the EC50 [7] was > 120 µM (not active), the EC50 [8] was > 120 µM (not active) and the EC50 [9] was > 100 µM (inactive). The EC50 [10] was > 120 µM (not active).
In the case of Oc1ccc(-c2csc(Nc3ccccn3)n2)cc1O, the EC50 [11] is reported as 17.3 µM (active), the EC50 [12] is reported as 74.1 µM (active) and the EC50 [13] is reported as 47.9 µM (active). For the same molecule, the EC50 [14] was 24.9 µM (active), the EC50 [15] was 48.7 µM (active) and the IC50 (Large T antigen) was 51.7 µM (active).
With O=c1cc(CSc2nnnn2-c2ccccc2)nc(Nc2ccc(F)cc2)[nH]1 the EC50 (Estrogen receptor [16]) was 12.5 µM (active), the IC50 (Estrogen receptor [17]) was > 50 µM (not active) and the IC50 (SUMO-activating enzyme [18]) was 6.47 µM (active). For the same molecule, the IC50 (SUMO-activating enzyme [19]) was 11.5 µM (active).
With COc1ccc(S(=O)(=O)N2CCOCC2)cc1NC(=O)c1cc2c(s1)CCCC2 the EC50 (Cannabinoid receptor 2 [20]) was > 32 µM (inactive), the EC50 [21] was 0.305 µM (active) and the IC50 (Cannabinoid receptor 2 [22]) was > 32 µM (inactive). For the same molecule, the IC50 (Cannabinoid receptor 1) was > 32 µM (inactive) and the EC50 [23] was 0.524 µM (active).
With Cc1ccc(CSc2nnc(-c3ccccn3)n2Cc2ccco2)cc1 the EC50 [24] was 6.21 µM (active), the EC50 (Mu-type opioid receptor [25]) was > 32 µM (inactive) and the IC50 (Mu-type opioid receptor [26]) was > 32 µM (inactive). For the same molecule, the EC50 [27] was > 32 µM (inactive), the IC50 [28] was > 32 µM (inactive) and the IC50 [29] was > 32 µM (inactive). For the same molecule, the EC50 [30] was 5.21 µM (active).
In the case of O=C(N[C@@H]1CCCN(Cc2ccccc2)C1)c1cc(Cl)cc(Cl)c1, the EC50 [31] is reported as 10 µM (active).
